Where two headings read alike, the source gives them in different places.
Legend:
Type in all cases: biochemical
JAK3 = JAK3 (Homo sapiens (Human), UniProt P52333); experiment: JAK Caliper Enzyme Assay at 1 mM ATP, JAK3
How it was run: (§1)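 IC50 (nM) derived from percent conversion of fluorescently labelled peptide, measured by Caliper LabChip mobility-shift separation after EDTA stop. Each JAK family kinase domain (human, recombinant) run at 1 mM ATP and room temperature, conditions set to 20-30% product; DMSO wells define uninhibited baseline.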

JAK2 = JAK2 (Homo sapiens (Human), UniProt O60674); experiment: JAK Caliper Enzyme Assay at 1 mM ATP, JAK2
Chain of JAK2 (O60674 849-1124): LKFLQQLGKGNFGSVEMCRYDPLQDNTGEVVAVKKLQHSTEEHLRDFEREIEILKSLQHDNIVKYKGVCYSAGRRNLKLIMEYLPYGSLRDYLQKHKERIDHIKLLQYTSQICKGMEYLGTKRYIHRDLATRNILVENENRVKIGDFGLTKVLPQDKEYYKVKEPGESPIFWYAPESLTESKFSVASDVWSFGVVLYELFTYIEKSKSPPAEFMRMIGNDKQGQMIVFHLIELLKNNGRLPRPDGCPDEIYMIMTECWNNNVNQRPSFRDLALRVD
How it was run: (§2)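 Human recombinant kinase domain + fluorescently labelled synthetic peptide, 1 mM ATP, RT; enzyme level/time set for 20–30% phosphorylation. EDTA stop. LabChip separation, peak-height % conversion, % effect vs plate controls.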

TYK2 = TYK2 (Homo sapiens (Human), UniProt P29597); experiment: JAK Caliper Enzyme Assay at 1 mM ATP, TYK2
Chain of TYK2 (P29597 897-1176): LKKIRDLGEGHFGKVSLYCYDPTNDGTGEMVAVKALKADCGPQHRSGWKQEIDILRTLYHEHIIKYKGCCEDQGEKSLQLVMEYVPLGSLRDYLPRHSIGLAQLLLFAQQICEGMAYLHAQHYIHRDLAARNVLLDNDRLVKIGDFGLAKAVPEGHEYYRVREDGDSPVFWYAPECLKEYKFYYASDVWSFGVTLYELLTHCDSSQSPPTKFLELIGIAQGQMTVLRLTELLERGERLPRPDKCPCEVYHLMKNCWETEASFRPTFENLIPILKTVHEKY
How it was run: as §2

JAK1 = JAK1 (Homo sapiens (Human), UniProt P23458); experiment: JAK Caliper Enzyme Assay at 1 mM ATP, JAK1
Chain of JAK1 (P23458 875-1153): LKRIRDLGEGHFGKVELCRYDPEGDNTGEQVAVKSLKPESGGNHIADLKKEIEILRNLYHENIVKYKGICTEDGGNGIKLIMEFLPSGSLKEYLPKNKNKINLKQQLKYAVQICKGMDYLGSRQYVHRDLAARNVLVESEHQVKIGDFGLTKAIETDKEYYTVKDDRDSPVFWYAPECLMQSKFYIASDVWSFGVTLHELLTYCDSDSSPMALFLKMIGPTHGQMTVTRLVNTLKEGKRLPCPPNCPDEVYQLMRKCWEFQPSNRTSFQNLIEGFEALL
How it was run: as §1

Chain of JAK3 (P52333 822-1111): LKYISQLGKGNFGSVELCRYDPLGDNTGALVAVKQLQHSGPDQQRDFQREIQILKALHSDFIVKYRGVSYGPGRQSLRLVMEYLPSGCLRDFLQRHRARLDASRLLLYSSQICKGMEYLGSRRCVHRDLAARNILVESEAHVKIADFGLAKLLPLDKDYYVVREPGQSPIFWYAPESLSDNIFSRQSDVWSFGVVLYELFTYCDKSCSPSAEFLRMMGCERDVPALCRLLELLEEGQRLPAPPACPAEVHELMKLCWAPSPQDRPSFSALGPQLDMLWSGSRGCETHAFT

SMILES | IC50 (JAK3; JAK Caliper enzyme assay) [nM] | IC50 (JAK2; JAK Caliper enzyme assay) [nM] | IC50 (TYK2; JAK Caliper enzyme assay) [nM] | IC50 (JAK1; JAK Caliper enzyme assay) [nM] | IC50 (JAK3) [nM] | IC50 (JAK2) [nM] | IC50 (TYK2) [nM] | IC50 (JAK1) [nM]
CS(=O)(=O)Nc1cccc(-c2cc(-c3cnn(C4(CC#N)CC(C#N)C4)n3)c3cccnc3c2)n1 (stereo not drawn) [Example 373, N-[6-(5-{2-[trans-3-cyano-1-(cyanomethyl)cyclobutyl]-2H-1,2,3-triazol-4-yl}quinolin-7-yl)pyridin-2-yl]methanesulfonamide] | > 10000 | 411 | 69 | 4070 | – | – | – | –
Cn1ncc(-c2cc(-c3cnn([C@]4(CC#N)C[C@@H](C#N)C4)n3)c3cccnc3c2)c1N [Example 330, trans-3-{4-[7-(5-amino-1-methyl-1H-pyrazol-4-yl)quinolin-5-yl]-2H-1,2,3-triazol-2-yl}-3-(cyanomethyl)cyclobutanecarbonitrile] | – | – | – | – | > 10000 | 1620 | 143 | 7700
Cn1cc(-c2cc(-c3cnn([C@]4(CC#N)C[C@@H](C#N)C4)c3)n3ccnc3c2)cn1 [Example 459, trans-3-(cyanomethyl)-3-{4-[7-(1-methyl-1H-pyrazol-4-yl)imidazo[1,2-a]pyridin-5-yl]-1H-pyrazol-1-yl}cyclobutanecarbonitrile] | > 10000 | 3150 | 297 | > 10000 | – | – | – | –
N#CCC1(n2ccc(-c3nc(-c4cnn(C5COC5)c4)cc4ncccc34)n2)CN(CC(F)(F)F)C1 [Example 119, [3-(3-{7-[1-(oxetan-3-yl)-1H-pyrazol-4-yl]-1,6-naphthyridin-5-yl}-1H-pyrazol-1-yl)-1-(2,2,2-trifluoroethyl)azetidin-3-yl]acetonitrile] | – | – | – | – | 8380 | 82 | 29 | 976
N#CC[C@]1(n2ccc(-c3nc(-c4ccn[nH]4)cc4ncccc34)n2)C[C@H](C#N)C1 [Example 20, trans-3-(cyanomethyl)-3-{3-[7-(1H-pyrazol-5-yl)-1,6-naphthyridin-5-yl]-1H-pyrazol-1-yl}cyclobutanecarbonitrile] | – | – | – | – | > 10000 | 240 | 25 | 381
CCOC(=O)Nc1cncc(-c2cc3ncccc3c(-c3ccn(C4(CC#N)CN(S(C)(=O)=O)C4)n3)n2)c1 [Example 202, ethyl [5-(5-{1-[3-(cyanomethyl)-1-(methylsulfonyl)azetidin-3-yl]-1H-pyrazol-3-yl}-1,6-naphthyridin-7-yl)pyridin-3-yl]carbamate] | – | – | – | – | > 10000 | > 10000 | 135 | > 10000
CS(=O)(=O)Nc1ccc(-c2cc(-c3cnn(C4(CC#N)CC(C#N)C4)n3)c3cccnc3c2)nc1 (stereo not drawn) [Example 375, N-[6-(5-{2-[trans-3-cyano-1-(cyanomethyl)cyclobutyl]-2H-1,2,3-triazol-4-yl}quinolin-7-yl)pyridin-3-yl]methanesulfonamide] | > 10000 | 148 | 30 | 452 | – | – | – | –
N#CCC1(n2ncc(-c3cc(-c4cc[nH]n4)cc4ncccc34)n2)CN(CC2(F)CC2)C1 [Example 297] | – | – | – | – | > 10000 | 2470 | 315 | 4590
CS(=O)(=O)N1CC(CC#N)(n2ccc(-c3nc(-c4cccnc4N)cc4ncccc34)n2)C1 [Example 191] | – | – | – | – | > 10000 | 931 | 75 | 5060
N#CC[C@]1(n2ncc(-c3cc(-c4cccnc4N)cc4ncccc34)n2)C[C@H](C#N)C1 [Example 363, trans-3-{4-[7-(2-aminopyridin-3-yl)quinolin-5-yl]-2H-1,2,3-triazol-2-yl}-3-(cyanomethyl)cyclobutanecarbonitrile] | – | – | – | – | > 10000 | > 10000 | 6840 | > 10000
CS(=O)(=O)N1CC(CC#N)(n2cc(-c3cc(-c4cc[nH]n4)cc4ncccc34)cn2)C1 [Example 288, [1-(methylsulfonyl)-3-{4-[7-(1H-pyrazol-3-yl)quinolin-5-yl]-1H-pyrazol-1-yl}azetidin-3-yl]acetonitrile] | – | – | – | – | > 10000 | 336 | 112 | 796
N#CCC1(n2ncc(-c3cc(-c4ccc(C(=O)O)cc4)cc4ncccc34)n2)CC(C#N)C1 (stereo not drawn) [Example 436, 4-(5-{2-[trans-3-cyano-1-(cyanomethyl)cyclobutyl]-2H-1,2,3-triazol-4-yl}quinolin-7-yl)benzoic acid] | > 10000 | 1130 | 75 | 1490 | – | – | – | –
C[C@]1(C#N)C[C@](CC#N)(n2ccc(-c3nc(-c4cn[nH]c4)cc4ncccc34)n2)C1 [Example 83, trans-3-(cyanomethyl)-1-methyl-3-{3-[7-(1H-pyrazol-4-yl)-1,6-naphthyridin-5-yl]-1H-pyrazol-1-yl}cyclobutanecarbonitrile] | – | – | – | – | > 10000 | 2450 | 410 | 2240
N#CC[C@]1(n2ccc(-c3nc(-c4cn[nH]c4)cc4ncccc34)n2)C[C@@H](c2ccn[nH]2)C1 [Example 85, [cis-3-(1H-pyrazol-5-yl)-1-{3-[7-(1H-pyrazol-4-yl)-1,6-naphthyridin-5-yl]-1H-pyrazol-1-yl}cyclobutyl]acetonitrile] | – | – | – | – | 5240 | 103 | 30 | 166
N#CC[C@]1(n2ncc(-c3cc(-c4cc[nH]n4)cc4ncccc34)n2)C[C@@H](C#N)C1 [Example 303, cis-3-(cyanomethyl)-3-{4-[7-(1H-pyrazol-3-yl)quinolin-5-yl]-2H-1,2,3-triazol-2-yl}cyclobutanecarbonitrile] | – | – | – | – | 3100 | 29 | 5 | 81
N#CCC1(n2ccc(-c3nc(-c4cc[nH]n4)cc4ncccc34)n2)CN(CC(F)(F)F)C1 [Example 16, [3-{3-[7-(1H-pyrazol-3-yl)-1,6-naphthyridin-5-yl]-1H-pyrazol-1-yl}-1-(2,2,2-trifluoroethyl)azetidin-3-yl]acetonitrile] | – | – | – | – | > 10000 | 431 | 23 | 475
Cc1nc(-c2cc3ncccc3c(-c3ccn(C4(CC#N)CN(CC(F)(F)F)C4)n3)n2)c[nH]1 [Example 150, [3-{3-[7-(2-methyl-1H-imidazol-4-yl)-1,6-naphthyridin-5-yl]-1H-pyrazol-1-yl}-1-(2,2,2-trifluoroethyl)azetidin-3-yl]acetonitrile] | – | – | – | – | > 10000 | 3420 | 290 | 9830

The next lines start with the values.

IC50 (JAK3; JAK Caliper enzyme assay) [nM] | IC50 (JAK2; JAK Caliper enzyme assay) [nM] | IC50 (TYK2; JAK Caliper enzyme assay) [nM] | IC50 (JAK1; JAK Caliper enzyme assay) [nM] | IC50 (JAK3) [nM] | IC50 (JAK2) [nM] | IC50 (TYK2) [nM] | IC50 (JAK1) [nM] | SMILES
> 10000 | 5360 | 395 | > 10000 | – | – | – | – | CO[C@H]1C[C@@](CC#N)(n2cc(-c3cc(-c4cnn(C)c4)cc4nccn34)cn2)C1 [Example 460, (cis-3-methoxy-1-{4-[7-(1-methyl-1H-pyrazol-4-yl)imidazo[1,2-a]pyridin-5-yl]-1H-pyrazol-1-yl}cyclobutyl)acetonitrile]
> 10000 | 1460 | 292 | 5380 | – | – | – | – | N#CC[C@]1(n2ncc(-c3cc(-c4cnc5c(N)nccn45)cc4ncccc34)n2)C[C@@H](C#N)C1 [Example 422, cis-3-{4-[7-(8-aminoimidazo[1,2-a]pyrazin-3-yl)quinolin-5-yl]-2H-1,2,3-triazol-2-yl}-3-(cyanomethyl)cyclobutanecarbonitrile]
> 10000 | > 10000 | 2150 | > 10000 | – | – | – | – | N#CC[C@]1(n2ncc(-c3cc(-c4ncc(OCCO)cn4)cc4ncccc34)n2)C[C@@H](C#N)C1 [Example 406, cis-3-(cyanomethyl)-3-(4-{7-[5-(2-hydroxyethoxy)pyrimidin-2-yl]quinolin-5-yl}-2H-1,2,3-triazol-2-yl)cyclobutanecarbonitrile]
> 10000 | > 10000 | 5040 | > 10000 | – | – | – | – | CS(=O)(=O)N1CC(CC#N)(n2ncc(-c3cc(-c4cncnc4)cc4ncccc34)n2)C1 [Example 389, [1-(methylsulfonyl)-3-{4-[7-(pyrimidin-5-yl)quinolin-5-yl]-2H-1,2,3-triazol-2-yl}azetidin-3-yl]acetonitrile]
> 10000 | 1960 | 107 | 5630 | – | – | – | – | CS(=O)(=O)N1CC(CC#N)(n2ncc(-c3cc(-c4cccc(O)c4)cc4ncccc34)n2)C1 [Example 438, [3-{4-[7-(3-hydroxyphenyl)quinolin-5-yl]-2H-1,2,3-triazol-2-yl}-1-(methylsulfonyl)azetidin-3-yl]acetonitrile]
– | – | – | – | > 10000 | 1810 | 212 | > 10000 | Cn1cc(-c2cc(-c3ccn(C4(CC#N)CN(S(C)(=O)=O)C4)n3)c3cccnc3c2)cn1 [Example 286, [3-{3-[7-(1-methyl-1H-pyrazol-4-yl)quinolin-5-yl]-1H-pyrazol-1-yl}-1-(methylsulfonyl)azetidin-3-yl]acetonitrile]
– | – | – | – | > 10000 | 149 | 17 | 120 | CS(=O)(=O)Nc1ccc(-c2cc3ncccc3c(-c3ccn(C4(CC#N)CN(S(C)(=O)=O)C4)n3)n2)cn1 [Example 205, N-[5-(5-{1-[3-(cyanomethyl)-1-(methylsulfonyl)azetidin-3-yl]-1H-pyrazol-3-yl}-1,6-naphthyridin-7-yl)pyridin-2-yl]methanesulfonamide]
> 10000 | 2630 | 261 | > 10000 | – | – | – | – | Cn1cc(-c2cn3ncnc3c(-c3cnn(C4(CC#N)CN(CC#N)C4)c3)n2)cn1 [Example 477, 2,2′-(3-{4-[6-(1-methyl-1H-pyrazol-4-yl)[1,2,4]triazolo[1,5-a]pyrazin-8-yl]-1H-pyrazol-1-yl}azetidine-1,3-diyl)diacetonitrile]

Reference: patent publication US11254668B2, “Pyrazolo[1,5-A]pyrazin-4-yl and related derivatives” (Pfizer Inc., priority 2017, dated 2022)
